Measurements: patent publication US20240409558A1, “IRREVERSIBLE INHIBITORS OF KRAS” (BIOMEA FUSION, INC., priority 2021, published 2024)

The compounds below were run on human KRAS G12C mutated cell line MIA PaCa-2 (assay: Inhibition of proliferation of MIA PaCa-2 cells (CellTiter-Glo, 7 day)). Details: 168 h, Table 4, 7 day, mean, read-out: MIA PaCa-2 IC50 (μM) 7 day Mean.
Assay type: cell-based
How it was run: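 MIA PaCa-2 cells (RPMI-1640, 10% FBS) seeded at about 1000 cells/well; eight compound concentrations in duplicate added 2 h later, with media and compound refreshed on day 3. ATP-luminescence viability read on day 7 by CellTiter-Glo; % inhibition relative to 0.2% DMSO control.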

Compound	IC50 [µM]
Oc1cc(Cl)c(C2CC2)c(-c2ccc3c(N4CCNCC45CC5)nc(OC[C@@]45CCCN4C[C@H](F)C5)nc3c2F)c1 [Compound 425, 3-chloro-4-cyclopropyl-5-[4-(4,7-diazaspiro[2.5]octan-4-yl)-8-fluoro-2-[[(2R,8S)-2-fluoro-1,2,3,5,6,7-hexahydropyrrolizin-8-yl]methoxy]quinazolin-7-y1]phenol]	0.607
C[C@@H]1CNCCN1c1nc(OC[C@@]23CCCN2C[C@H](F)C3)nc2cc(-c3c(O)cccc3C3CC3)c(F)cc12 [Compound 426]	> 1
Cn1ccnc1-c1c(F)cccc1-c1cnc2c(N3CC4CCC(C3)N4)nc(OC[C@@]34CCCN3C[C@H](F)C4)nc2c1 [Compound 427, 4-(3,8-diazabicyclo[3.2.1]octan-3-yl)-2-[[(2R,8S)-2-fluoro-1,2,3,5,6,7-hexahydropyrrolizin-8-yl]methoxy]-7-[3-fluoro-2-(1-methylimidazol-2-yl)phenyl]pyrido[3,2-d]pyrimidine]	> 1
Oc1cc(Cl)c(C2CC2)c(-c2ccc3c(N4CC5CCC(C4)N5)nc(OC[C@@]45CCCN4C[C@H](F)C5)nc3c2)c1 [Compound 428, 3-chloro-4-cyclopropyl-5-[4-(3,8-diazabicyclo[3.2.1]octan-3-y1)-2-[[(2R,8S)-2-fluoro-1,2,3,5,6,7-hexahydropyrrolizin-8-yl]methoxy]quinazolin-7-yl]phenol]	> 1
Oc1cc(Cl)c(C2CC2)c(-c2ccc3c(N4CC5CCC(C4)N5)cc(OC[C@@]45CCCN4C[C@H](F)C5)nc3c2F)c1 [Compound 429, 3-chloro-4-cyclopropyl-5-[4-(3,8-diazabicyclo[3.2.1]octan-3-yl)-8-fluoro-2-[[(2R,8S)-2-fluoro-1,2,3,5,6,7-hexahydropyrrolizin-8-y1]methoxy]-7-quinolyl]phenol]	> 1
Oc1cc(Cl)c(C2CC2)c(-c2ccc3c(C4CCNCC4)nc(OC[C@@]45CCCN4C[C@H](F)C5)nc3c2F)c1 [Compound 430, 3-chloro-4-cyclopropyl-5-[8-fluoro-2-[[(2R,8S)-2-fluoro-1,2,3,5,6,7-hexahydropyrrolizin-8-yl]methoxy]-4-(4-piperidyl)quinazolin-7-yl]phenol]	0.983
OC1Cc2cccc(Cl)c2N(c2ncc3c(N4CC5CCC(C4)N5)nc(OC[C@@]45CCCN4C[C@H](F)C5)nc3c2F)C1 (stereo partly shown) [Compound 432]	> 1
Oc1cc(Cl)c(C2CC2)c(-c2ncc3c(C4CCNCC4)nc(OC[C@@]45CCCN4C[C@H](F)C5)nc3c2F)c1 [Compound 433]	> 1
CC(C)C(O)CN1C2CCC1CN(c1nc(OC[C@@]34CCCN3C[C@H](F)C4)nc3c(F)c(-c4cc(O)cc(Cl)c4C4CC4)ncc13)C2 (stereo partly shown) [Compound 434]	> 1
Oc1cc(-c2ncc3c(C4CCNCC4)nc(OC[C@@]45CCCN4C[C@H](F)C5)nc3c2F)c2c(F)c(F)ccc2c1 [Compound 435, 5,6-difluoro-4-[8-fluoro-2-[[(2R,8S)-2-fluoro-1,2,3,5,6,7-hexahydropyrrolizin-8-yl]methoxy]-4-(4-piperidyl)pyrido[4,3-d]pyrimidin-7-yl]naphthalen-2-ol]	> 1
C=C1CCN(c2nc(OC[C@@]34CCCN3C[C@H](F)C4)nc3c(F)c(-c4cc(O)cc(Cl)c4C4CC4)ncc23)CC1 [Compound 436, 3-chloro-4-cyclopropyl-5-[8-fluoro-2-[[(2R,8S)-2-fluoro-1,2,3,5,6,7-hexahydropyrrolizin-8-yl]methoxy]-4-(4-methylene-1-piperidyl)pyrido[4,3-d]pyrimidin-7-yl]phenol]	> 1
Oc1cc(Cl)c(C2CC2)c(-c2ncc3c(N4CCC5(CC4)CN5)nc(OC[C@@]45CCCN4C[C@H](F)C5)nc3c2F)c1 [Compound 438, 3-chloro-4-cyclopropyl-5-[4-(1,6-diazaspiro[2.5]octan-6-yl)-8-fluoro-2-[[(2R,8S)-2-fluoro-1,2,3,5,6,7-hexahydropyrrolizin-8-yl]methoxy]pyrido[4,3-d]pyrimidin-7-yl]phenol]	0.229
Oc1cc(-c2ncc3c(C4CC5CCC(C4)N5)nc(OC[C@@]45CCCN4C[C@H](F)C5)nc3c2F)c2c(F)c(F)ccc2c1 (stereo partly drawn) [Compound 443, 4-[4-(8-azabicyclo[3.2.1]octan-3-yl)-8-fluoro-2-[[(2R,8S)-2-fluoro-1,2,3,5,6,7-hexahydropyrrolizin-8-yl]methoxy]pyrido[4,3-d]pyrimidin-7-y1]-5,6-difluoro-naphthalen-2-ol]	> 1

Further lines, results first:

IC50 [µM]	Compound
> 1	Oc1cc(Cl)c(C2CC2)c(-c2ncc3c(N4CCC5(CC4)CO5)nc(OC[C@@]45CCCN4C[C@H](F)C5)nc3c2F)c1 [Compound 437, 3-chloro-4-cyclopropyl-5-[8-fluoro-2-[[(2R,8S)-2-fluoro-1,2,3,5,6,7-hexahydropyrrolizin-8-yl]methoxy]-4-(1-oxa-6-azaspiro[2.5]octan-6-yl)pyrido[4,3-d]pyrimidin-7-yl]phenol]
> 1	C[C@H]1CC(c2nc(OC[C@@]34CCCN3C[C@H](F)C4)nc3c(F)c(-c4cc(O)cc5ccc(F)c(F)c45)ncc23)CCN1 (stereo partly drawn) [Compound 439, 5,6-difluoro-4-[8-fluoro-2-[[(2R,8S)-2-fluoro-1,2,3,5,6,7-hexahydropyrrolizin-8-yl]methoxy]-4-[(2S)-2-methyl-4-piperidyl]pyrido[4,3-d]pyrimidin-7-yl]naphthalen-2-ol]
3.65	C[C@@H]1CC(c2nc(OC[C@@]34CCCN3C[C@H](F)C4)nc3c(F)c(-c4cc(O)cc5ccc(F)c(F)c45)ncc23)CCN1 (stereo partly drawn) [Compound 440, 5,6-difluoro-4-[8-fluoro-2-[[(2R,8S)-2-fluoro-1,2,3,5,6,7-hexahydropyrrolizin-8-yl]methoxy]-4-[(2R)-2-methyl-4-piperidyl]pyrido[4,3-d]pyrimidin-7-yl]naphthalen-2-ol]
> 1	CCC1(c2nc(OC[C@@]34CCCN3C[C@H](F)C4)nc3c(F)c(-c4cc(O)cc(Cl)c4C4CC4)ncc23)CCNCC1 [Compound 441]
8.87	CC1(c2nc(OC[C@@]34CCCN3C[C@H](F)C4)nc3c(F)c(-c4cc(O)cc(Cl)c4C4CC4)ncc23)CCNCC1 [Compound 442, 3-chloro-4-cyclopropyl-5-[8-fluoro-2-[[(2R,8S)-2-fluoro-1,2,3,5,6,7-hexahydropyrrolizin-8-yl]methoxy]-4-(4-methyl-4-piperidyl)pyrido[4,3-d]pyrimidin-7-yl]phenol]
6.74	CC1(c2nc(OC[C@@]34CCCN3C[C@H](F)C4)nc3c(F)c(-c4cc(O)cc5ccc(F)c(F)c45)ncc23)CCNCC1 [Compound 444]
